The values below come from US20090155247A1, “Methods of Using Death Receptor Agonists and EGFR Inhibitors” (priority 2005, published 2009).

In this assay the test system is H460 non-small lung cancer cells. Description: Growth of H460 tumor xenografts in vivo. The conditions noted are these: H460 cells injected subcutaneously in mice; compared with vehicle-treated mice; treatments as provided in FIG. 6. As for the experimental part:
Mice were injected subcutaneously with H460 non-small lung cancer cells (ATCC) (5 million cells per mouse).

On to “Apo2L/TRAIL: Apo2L/TRAIL polypeptide consisting of amino acids 114-281 of FIG. 1”, for which the tumor growth result was “markedly delayed tumor growth”.

As to `C#Cc1cccc(Nc2ncnc3cc(OCCOC)c(OCCOC)cc23)c1` [Tarceva™, N-(3-ethynylphenyl)-6,7-bis(2-methoxyethoxy)-4-quinazolinamine], the tumor growth result was “markedly delayed tumor growth”.
